Tested on: K24384-001-R-PDC complex spheroid growth
Experiment: Anticancer human tumor K24384-001-R-PDC patient-derived pancreatic adenocarcinoma cell line growth inhibition [AhR]
Conditions: for IC50: curve of first compound; for viability, T/C: stronger effect = lower value
How it was run: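 Complex tumor spheroids co-cultured with HUVEC and human MSC stroma; AhR antagonists tested in combination with standard-of-care and investigational agents. Top concentration at or near clinical Cmax (else 10 microM), half-log dilutions; growth expressed as percent test/control.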

[1] = second compound 0.1 µM, first compound 0.0316 µM
[2] = second compound 0.1 µM, first compound 0.1 µM
[3] = second compound 0.1 µM, first compound 0.316 µM
[4] = second compound 0.1 µM, first compound 1 µM
[5] = second compound 0.1 µM, first compound 3.16 µM
[6] = second compound 0.1 µM, first compound 10 µM
[7] = second compound 0.316 µM, first compound 0.0316 µM
[8] = second compound 0.316 µM, first compound 0.1 µM
[9] = second compound 0.316 µM, first compound 0.316 µM
[10] = second compound 0.316 µM, first compound 1 µM
[11] = second compound 0.316 µM, first compound 3.16 µM
[12] = second compound 0.316 µM, first compound 10 µM
[13] = second compound 1 µM, first compound 0.0316 µM
[14] = second compound 1 µM, first compound 0.1 µM
[15] = second compound 1 µM, first compound 0.316 µM
[16] = second compound 1 µM, first compound 1 µM
[17] = second compound 1 µM, first compound 3.16 µM
[18] = second compound 1 µM, first compound 10 µM
[19] = second compound 3.16 µM, first compound 0.0316 µM
[20] = second compound 3.16 µM, first compound 0.1 µM
[21] = second compound 3.16 µM, first compound 0.316 µM
[22] = second compound 3.16 µM, first compound 1 µM
[23] = second compound 3.16 µM, first compound 3.16 µM
[24] = second compound 3.16 µM, first compound 10 µM
[25] = second compound 10 µM, first compound 0.0316 µM
[26] = second compound 10 µM, first compound 0.1 µM
[27] = second compound 10 µM, first compound 0.316 µM
[28] = second compound 10 µM, first compound 1 µM
[29] = second compound 10 µM, first compound 3.16 µM
[30] = second compound 10 µM, first compound 10 µM
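Wherever viability, T/C is given: percent of DMSO vehicle-treated spheroid viability set as 100%.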

`COc1cccc2c1C(=O)c1c(O)c3c(c(O)c1C2=O)CC(O)(C(=O)CO)CC3OC1CC(N)C(O)C(C)O1` (stereo not given) + Cc1cncc(-c2nc(NCCc3c[nH]c4ccccc34)c3ncn(C(C)C)c3n2)c1 showed an IC50 (second compound 0.1 µM) of 43.2 nM, an IC50 (second compound 0.316 µM) of less than 31.6 nM and an IC50 (second compound 1 µM) of 42.2 nM. For the same molecule, the IC50 (second compound 3.16 µM) was less than 31.6 nM, the IC50 (second compound 10 µM) was less than 31.6 nM and the viability, T/C [1] was 56.2%. For the same molecule, the viability, T/C [2] was 32.3%, the viability, T/C [3] was 22% and the viability, T/C [4] was 6.38%. It also gave a viability, T/C [5] of 2.85%, a viability, T/C [6] of 7.5% and a viability, T/C [7] of 43.8%. For the same molecule, the viability, T/C [8] was 39.4%, the viability, T/C [9] was 18.6% and the viability, T/C [10] was 4.66%. The viability, T/C [11] was 4.69%, the viability, T/C [12] was 7.35% and the viability, T/C [13] was 53.4%. The viability, T/C [14] was 39.8%, the viability, T/C [15] was 14.4% and the viability, T/C [16] was 4.5%. The viability, T/C [17] was 2.69%, the viability, T/C [18] was 5.17% and the viability, T/C [19] was 41.2%. It also gave a viability, T/C [20] of 35.8%, a viability, T/C [21] of 10.2% and a viability, T/C [22] of 2.01%. The viability, T/C [23] was 3.75%, the viability, T/C [24] was 5.63% and the viability, T/C [25] was 6.65%. It also gave a viability, T/C [26] of 10.3%, a viability, T/C [27] of 4.38% and a viability, T/C [28] of 1.31%. It also gave a viability, T/C [29] of 1.89% and a viability, T/C [30] of 2.29%.
With `Nc1ccn(C2OC(CO)C(O)C2(F)F)c(=O)n1` (stereo not given) + Cc1cncc(-c2nc(NCCc3c[nH]c4ccccc34)c3ncn(C(C)C)c3n2)c1 the IC50 (second compound 0.1 µM) was 507 nM, the IC50 (second compound 0.316 µM) was 636 nM and the IC50 (second compound 1 µM) was 928 nM. The IC50 (second compound 3.16 µM) was 3070 nM, the IC50 (second compound 10 µM) was less than 31.6 nM and the viability, T/C [1] was 73.7%. The viability, T/C [2] was 74.8%, the viability, T/C [3] was 51.2% and the viability, T/C [4] was 42.9%. It also gave a viability, T/C [5] of 32.4%, a viability, T/C [6] of 24.5% and a viability, T/C [7] of 104%. For the same molecule, the viability, T/C [8] was 79.1%, the viability, T/C [9] was 50.8% and the viability, T/C [10] was 51.1%. For the same molecule, the viability, T/C [11] was 35.1%, the viability, T/C [12] was 19.6% and the viability, T/C [13] was 98.1%. For the same molecule, the viability, T/C [14] was 111%, the viability, T/C [15] was 74.2% and the viability, T/C [16] was 50.4%. For the same molecule, the viability, T/C [17] was 41.6%, the viability, T/C [18] was 29.2% and the viability, T/C [19] was 117%. The viability, T/C [20] was 114%, the viability, T/C [21] was 83.9% and the viability, T/C [22] was 70.1%. It also gave a viability, T/C [23] of 51.7%, a viability, T/C [24] of 31.2% and a viability, T/C [25] of 13.9%. For the same molecule, the viability, T/C [26] was 11.2%, the viability, T/C [27] was 13.6% and the viability, T/C [28] was 8.91%. For the same molecule, the viability, T/C [29] was 10.4% and the viability, T/C [30] was 10.4%.
`Nc1ncn(C2CC(O)C(CO)O2)c(=O)n1` (stereo not given) + Cc1cncc(-c2nc(NCCc3c[nH]c4ccccc34)c3ncn(C(C)C)c3n2)c1 showed an IC50 (second compound 0.1 µM) greater than 1000 nM, an IC50 (second compound 0.316 µM) greater than 1000 nM and an IC50 (second compound 1 µM) greater than 1000 nM. It also gave an IC50 (second compound 3.16 µM) greater than 1000 nM, an IC50 (second compound 10 µM) of less than 3.16 nM and a viability, T/C (second compound 0.1 µM, first compound 0.00316 µM) of 83.2%. For the same molecule, the viability, T/C (second compound 0.1 µM, first compound 0.01 µM) was 97.6%, the viability, T/C [1] was 92.8% and the viability, T/C [2] was 77.5%. The viability, T/C [3] was 62.8%, the viability, T/C [4] was 51.1% and the viability, T/C (second compound 0.316 µM, first compound 0.00316 µM) was 91.1%. The viability, T/C (second compound 0.316 µM, first compound 0.01 µM) was 101%, the viability, T/C [7] was 95.8% and the viability, T/C [8] was 77.7%. For the same molecule, the viability, T/C [9] was 72.2%, the viability, T/C [10] was 63.6% and the viability, T/C (second compound 1 µM, first compound 0.00316 µM) was 80.2%. The viability, T/C (second compound 1 µM, first compound 0.01 µM) was 101%, the viability, T/C [13] was 103% and the viability, T/C [14] was 82.5%. For the same molecule, the viability, T/C [15] was 99.4%, the viability, T/C [16] was 66% and the viability, T/C (second compound 3.16 µM, first compound 0.00316 µM) was 83.1%. The viability, T/C (second compound 3.16 µM, first compound 0.01 µM) was 100%, the viability, T/C [19] was 87.8% and the viability, T/C [20] was 66.8%. The viability, T/C [21] was 67.9%, the viability, T/C [22] was 70.2% and the viability, T/C (second compound 10 µM, first compound 0.00316 µM) was 13.3%. For the same molecule, the viability, T/C (second compound 10 µM, first compound 0.01 µM) was 14.3%, the viability, T/C [25] was 14.8% and the viability, T/C [26] was 10.8%. For the same molecule, the viability, T/C [27] was 8.89% and the viability, T/C [28] was 11.4%.

Reference: PubChem BioAssay AID1919009 (Molecular Pharmacology Branch, DTP, NCI, 2023)
